Experimental data from patent publication US10344017B2, “Pyrrolcarboxamide derivatives for the inhibition of ERK5” (CANCER RESEARCH TECHNOLOGY LIMITED, priority 2014, dated 2019).

Key:
[1] = system: ERK5 autophosphorylation in HeLa cells; assay: EGF-stimulated HeLa cell assay (ERK5 autophosphorylation, Western blot); assay type: cell-based; conditions: Homo sapiens, average where more than one data point
Protocol: EGF-Stimulated HeLa Cell Assay
HeLa cells were serum starved overnight followed by treatment with ERK5 inhibitors for 1 hr. Cells were then stimulated with 100 ng/ml EGF for 10 or 15 min. The cells were harvested and lysed at 4° C. for 5-10 min in Laemmli buffer containing Halt protease and […] (Pierce). The lysates were boiled for 10 min at 100° C. Twenty microliters sample was run on 6% or 7.5% Tris-glycine gels and transferred to nitrocellulose. […] The IC50 was calculated from densitometry of top bands.

ERK5 = target: T1, ERK5 (Homo sapiens, UniProt Q13164); assay: ERK5 IMAP assay (fluorescence polarisation); assay type: biochemical; conditions: average (e.g. geometric mean) where more than one data point; read-out: ERK5 IC50
T1 construct: made in house

[2] = system: HA-ERK5-ΔP493 (MEK5D-activated, MEF2D-Gal4/Gal4-Luc reporter) in HEK293T cells; assay: Truncated dual-luciferase reporter assay, HEK293T forward transfection; assay type: cell-based; conditions: Homo sapiens, HEK-293T, average where more than one data point, read-out: Truncated ERK 5 Reporter Assay
Protocol: Truncated Dual-Luciferase Reporter Assay
HEK293T and HeLa Forward Transfection
Constitutively-active, EGFP-tagged MEK5 (EGFP-MEK5D; 0.5 μg/μl), an EGFP-tagged construct containing no MEK5D (EGFP-C3; 0.5 μg/μl), and HA-tagged ERK5 with C-terminal truncation (HA-ERK5-ΔP493; 0.51 μg/μl) were diluted separately in sterile distilled water. Plasmid DNA and Lipofectamine 2000 (Invitrogen) were separately diluted in Opti-MEM growth media (reduced serum medium, Invitrogen), and incubated at room temperature for 5 min. Plasmid DNA (Tube A) and Lipofectamine 2000 (Tube B) were then combined and incubated for 20 min at room temperature to complex. Cells were then transfected by addition of 16 μl of the respective transfection mixture: 3 wells with EGFP-C3-containing (control) and 21 wells with MEK5D-containing transfection mixture (final volume, 100 μl). Cells were subsequently incubated for 4 h at 37° prior to addition of potential ERK5-inhibitory compounds.
Addition of Compounds to ERK5-Transfected HEK293T or HeLa Cells
Potential ERK5-inhibitory compounds were prepared as a 2× solution by addition of 2 μl compound (or DMSO as control) to 1 ml standard culture medium. Compounds were tested in triplicate at a concentration range of 0.003 μM, 0.01 μM, 0.03 μM, 0.1 μM, 0.3 μM and 1 μM (or 0.03 μM, 0.1 μM, 0.3 μM, 1 μM, 3 μM and 10 μM for BIX02189) by addition of 100 μl 2× solution to 100 μl transfected cells (final DMSO, 0.1% v/v). Cells were incubated for 24 h at 37° C.
Cell Lysis and Luciferase Quantification
After 24 h incubation in the absence (control) or presence of potential inhibitor, the culture medium was aspirated and cells lysed in 20 μl 1× passive lysis buffer (Dual-Luciferase Reporter Assay System, Promega) for a minimum of 15 min with agitation. Lysates were further processed immediately or stored at −80° C. Cellular inhibition of ERK5 was quantified using the Dual-Luciferase Reporter Assay System (Promega). Luciferase assay buffer/Luciferase assay substrate and Stop and Glo assay buffer/Stop and Glo substrate were prepared according to the manufacturer's instructions. Luciferase reagent (50 μl/well) was added immediately before luminescence detection using a FLUOstar Omega plate reader (BMG Labtech). Stop and Glo reagent (50 μl/well) was subsequently added, and the Renilla luciferase signal (transfection efficiency control) quantified.
The ERK5-specific signalling activity was calculated by subtraction of the EGFP-C3 luciferase signal from the EGFP-MEK5D-induced luminescence. Luminescence in the absence of potential ERK5 inhibitor (DMSO control) was taken as 100% ERK5 activity. […] Unless stated otherwise, data are mean±standard deviation of three independent experiments.

T1 sequence (Q13164 whole entry): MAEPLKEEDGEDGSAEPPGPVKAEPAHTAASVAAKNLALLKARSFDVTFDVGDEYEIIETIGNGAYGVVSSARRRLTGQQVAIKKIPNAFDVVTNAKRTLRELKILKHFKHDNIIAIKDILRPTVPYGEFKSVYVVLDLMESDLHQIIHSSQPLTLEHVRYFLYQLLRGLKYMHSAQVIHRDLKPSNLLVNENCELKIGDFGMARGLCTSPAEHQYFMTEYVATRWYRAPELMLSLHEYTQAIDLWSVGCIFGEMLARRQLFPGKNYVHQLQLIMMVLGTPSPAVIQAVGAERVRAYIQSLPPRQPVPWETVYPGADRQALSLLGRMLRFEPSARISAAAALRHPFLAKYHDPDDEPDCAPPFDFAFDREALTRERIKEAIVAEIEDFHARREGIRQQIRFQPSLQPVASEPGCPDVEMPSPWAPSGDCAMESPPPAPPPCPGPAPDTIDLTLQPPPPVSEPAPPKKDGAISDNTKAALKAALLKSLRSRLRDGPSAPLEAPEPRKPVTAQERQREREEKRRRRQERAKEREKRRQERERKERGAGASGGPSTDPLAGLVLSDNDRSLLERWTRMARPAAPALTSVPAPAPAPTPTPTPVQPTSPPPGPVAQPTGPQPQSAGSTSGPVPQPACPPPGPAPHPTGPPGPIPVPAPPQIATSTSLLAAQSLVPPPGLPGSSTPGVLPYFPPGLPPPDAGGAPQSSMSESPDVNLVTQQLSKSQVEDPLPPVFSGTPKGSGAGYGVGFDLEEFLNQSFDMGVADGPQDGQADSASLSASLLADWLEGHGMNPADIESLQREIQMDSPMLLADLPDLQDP

Row | SMILES | IC50 [1] [nM] | IC50 (ERK5) [nM] | IC50 [2] [nM]
1 | O=C(Nc1cnc(NC2CCN(C3CC3)CC2)nc1)c1cc(C(=O)c2c(Cl)ccc(Cl)c2F)c[nH]1 [Example 25, N-(2-((1-Cyclopropylpiperidin-4-yl)amino)pyrimidin-5-yl)-4-(3,6-dichloro-2-fluorobenzoyl)-1H-pyrrole-2-carboxamide] | 5100 | 49.7 | 
2 | O=C(Nc1cnn(C2CNC2)c1)c1cc(C(=O)c2c(Cl)ccc(Cl)c2F)c[nH]1 [Example 54, N-(1-(Azetidin-3-yl)-1H-pyrazol-4-yl)-4-(3,6-dichloro-2-fluorobenzoyl)-1H-pyrrole-2-carboxamide] | 140 | 31.7 | 
3 | COc1ccc(Cl)c(C(=O)c2c[nH]c(C(=O)Nc3ccc(N4CCNCC4)nc3)c2)c1F [Example 69, 4-(6-Chloro-2-fluoro-3-methoxybenzoyl)-N-(6-(piperazin-1-yl)pyridin-3-yl)-1H-pyrrole-2-carboxamide] | 700 | 15.7 | 
4 | CN(c1ccc(NC(=O)c2cc(C(=O)c3c(Cl)ccc(Cl)c3F)c[nH]2)cn1)C1CCNCC1 [Example 107, 4-(3,6-Dichloro-2-fluorobenzoyl)-N-(6-(methyl(piperidin-4-yl)amino)pyridin-3-yl)-1H-pyrrole-2-carboxamide] | 450 | 24.6 | 
5 | O=C(Nc1ccc(CC2CCNCC2)nc1)c1cc(C(=O)c2c(Cl)ccc(Cl)c2F)c[nH]1 [Example 111, 4-(3,6-Dichloro-2-fluorobenzoyl)-N-(6-(piperidin-4-ylmethyl)pyridin-3-yl)-1H-pyrrole-2-carboxamide] | 290 | 5.1 | 
6 | CCN(CC)CCNc1ccc(NC(=O)c2cc(C(=O)c3c(Cl)ccc(Cl)c3F)c[nH]2)cn1 [Example 262, 4-(3,6-Dichloro-2-fluorobenzoyl)-N-(6-((2-(diethylamino)ethyl)amino)pyridin-3-yl)-1H-pyrrole-2-carboxamide] |  | 18.5 | 149
7 | O=C(Nc1ccc(NCCN2CCCCC2)nc1)c1cc(C(=O)c2c(Cl)ccc(Cl)c2F)c[nH]1 [Example 264, 4-(3,6-Dichloro-2-fluorobenzoyl)-N-(6-((2-(piperidin-1-yl)ethyl)amino)pyridin-3-yl)-1H-pyrrole-2-carboxamide] |  | 11.1 | 142
8 | O=C(Nc1ccc(NCCN2CCCC2)nc1)c1cc(C(=O)c2c(Cl)ccc(Cl)c2F)c[nH]1 [Example 275, 4-(3,6-Dichloro-2-fluorobenzoyl)-N-(6-((2-(pyrrolidin-1-yl)ethyl)amino)pyridin-3-yl)-1H-pyrrole-2-carboxamide] |  | 7.1 | 107
9 | O=C(Nc1ccc(NCCN2CCOCC2)nc1)c1cc(C(=O)c2c(Cl)ccc(Cl)c2F)c[nH]1 [Example 276, 4-(3,6-Dichloro-2-fluorobenzoyl)-N-(6-((2-morpholinoethyl)amino)pyridin-3-yl)-1H-pyrrole-2-carboxamide] |  | 58.1 | 125
10 | CN(C)Cc1ccc(NC(=O)c2cc(C(=O)c3c(Cl)ccc(Cl)c3F)c[nH]2)cn1 [Example 277, 4-(3,6-Dichloro-2-fluorobenzoyl)-N-(6-((dimethylamino)methyl)pyridin-3-yl)-1H-pyrrole-2-carboxamide] |  | 22 | 36
11 | COCCN(C)Cc1ccc(NC(=O)c2cc(C(=O)c3c(Cl)ccc(Cl)c3F)c[nH]2)cn1 [Example 278] |  | 34 | 40
12 | O=C(Nc1ccc(CN2CCC(O)CC2)nc1)c1cc(C(=O)c2c(Cl)ccc(Cl)c2F)c[nH]1 [Example 282] |  | 6.7 | 44
13 | O=C(Nc1ccc(CN2CCCCC2)nc1)c1cc(C(=O)c2c(Cl)ccc(Cl)c2F)c[nH]1 [Example 284, 4-(3,6-Dichloro-2-fluorobenzoyl)-N-(6-(piperidin-1-ylmethyl)pyridin-3-yl)-1H-pyrrole-2-carboxamide] |  | 9 | 13
